Literature values as cited in patent US20030133995A1, “Ingestible capsaicin neutralizer” (priority 2002, published 2003).

What was measured:
[1] = pure capsaicin
[2] = tested on: tongue; conditions: pure form diluted one hundred thousand fold
[3] = pure form

SMILES: COc1cc(CNC(=O)CCCC/C=C/C(C)C)ccc1O [capsaicin, N-Vanillyl-8-methyl-6-(E)-noneamide]
- heat sensation [1]: approximately 16,000,000 Scoville units
- blistering of the tongue [2]: can cause blistering of the tongue
- solubility in aqueous solutions ([3]; aqueous solutions): not very soluble
- solubility in fats, oils and alcohols ([3]; fats, oils and alcohols): quite soluble
